# From US12527872B2, “PEGylated ICD inducer-IDO inhibitor nanoconjugate, and preparation method and use thereof” (SHANDONG UNIVERSITY, priority 2019, dated 2026)
# Legend:
# [1] = system: 4T1 cells; assay: In vivo inhibition of breast tumor growth (4T1 breast cancer model); conditions: BALB/c mice injected with 4T1 cells, treated every three days; compared with saline control; FIG. 8
# Method: To evaluate the efficacy of diMT-OXA(IV)-PEG 2000 nanoconjugate in inhibiting tumor growth in vivo, a model of animal with breast cancer was established. 4T1 cells were injected intravenously in BALB/c mice. 4T1 cells spontaneously generate tumors in BALB/c mice, and the characteristics of these tumors are very similar to breast cancer in humans. The BALB/c mice injected with 4T1 cells were treated every three days with free OXA, free 1-MT, free 1-MT plus OXA, and diMT-OXA(IV)-PEG 2000 nanoconjugate, and were treated with saline as control. After the course of treatment, tumor masses were collected from the experimental mice to measure tumor volume to assess general anti-tumor effects (see […]). It can be learned from FIG. 8 that the tumor volume is reduced in mice treated with free OXA, free 1-MT, and free 1-MT plus OXA, and the tumor volume is reduced in mice treated with diMT-OXA(IV)-PEG 2000 nanoconjugate to more than about 50% of that in mice treated with saline as control.
# [2] = system: 4T1 cells; assay: In vitro anti-tumor viability test (CCK-8); type: cell-based; conditions: different concentrations, 48 h, CCK-8, absorbance at 450 nm; FIG. 10
# Method: 4T1 cells were incubated in a 96-well plate (8000 cells/well) with a volume of 100 μL per well. After the incubation, the 96-well plate was placed in an incubator to culture at 37° C. under 5% CO2 overnight. 100 μL of free OXA and diMT-OXA(IV)-PEG 2000 nanoconjugate (in different concentrations) were added. After culture in the incubator at 37° C. under 5% CO2 for 48 h, 10 μL of CCK-8 solution was added into each well and then cultured in the incubator at 37° C. under 5% CO2 for 2 h. The absorbance was measured at 450 nm by an ELISA reader, and the cell viability was calculated.
Compound,tumor volume [1],inhibitory effect on the proliferation of 4T1 cells (cell viability) [2]
"Cn1cc(C[C@@H](N)C(=O)O)c2ccccc21 [free 1-MT, 1-methyl-D-tryptophan]",reduced,
"O=C1[O][Pt]2([NH][C@@H]3CCCC[C@H]3[NH]2)[O]C1=O [free OXA, oxaliplatin]",reduced,good inhibitory effect
